# Experiments:
# Mus musculus [1] = assay: Tested in vivo for immunosuppressive activity in mouse using allogenic skin grafting technique(SG); mean graft survival at a dose of 0.15 mg/kg; assay type: functional
# Mus musculus [2] = assay: Tested in vivo for immunosuppressive activity in mouse using allogenic skin grafting technique(SG); weight at a dose of 1.5 mg/kg; assay type: functional
# Mus musculus [3] = assay: Tested in vivo for immunosuppressive activity in mouse using graft vs Host rejection technique(GVHR); spleen weight normalized to D8 body weight at a dose of 1.5 mg/kg; assay type: functional
# Mus musculus [4] = assay: Tested in vivo for immunosuppressive activity in mouse using graft vs Host rejection technique(GVHR); spleen index at a dose of 15.0 mg/kg; assay type: functional
# Mus musculus [5] = assay: Tested in vivo for immunosuppressive activity in mouse using graft vs Host rejection technique(GVHR); spleen index at a dose of 0.15 mg/kg; assay type: functional
# Mus musculus [6] = assay: Tested in vivo for immunosuppressive activity in mouse using allogenic skin grafting technique(SG); weight at a dose of 0.15 mg/kg; assay type: functional
# Mus musculus [7] = assay: Tested in vivo for immunosuppressive activity in mouse using allogenic skin grafting technique(SG); mean graft survival at a dose of 1.5 mg/kg; assay type: functional
# Mus musculus [8] = assay: Tested in vivo for immunosuppressive activity in mouse using graft vs Host rejection technique(GVHR); spleen weight normalized to D8 body weight at a dose of 0.15 mg/kg; assay type: functional
# Mus musculus [9] = assay: Tested in vivo for immunosuppressive activity in mouse using allogenic skin grafting technique(SG); weight lost at a dose of 1.5 mg/kg on day 5; assay type: functional
# Mus musculus [10] = assay: Tested in vivo for immunosuppressive activity in mouse using graft vs Host rejection technique(GVHR); weight change at a dose of 0.15 mg/kg on day 5; assay type: functional
# Mus musculus [11] = assay: Tested in vivo for immunosuppressive activity in mouse using graft vs Host rejection technique(GVHR);% suppression at a dose of 1.5 mg/kg; assay type: functional
# Mus musculus [12] = assay: Tested in vivo for immunosuppressive activity in mouse using graft vs Host rejection technique(GVHR); spleen index at a dose of 1.5 mg/kg; assay type: functional
# Mus musculus [13] = assay: Tested in vivo for immunosuppressive activity in mouse using graft vs Host rejection technique(GVHR); body weight at a dose of 0.15 mg/kg; assay type: functional
# Mus musculus [14] = assay: Tested in vivo for immunosuppressive activity in mouse using graft vs Host rejection technique(GVHR); weight at a dose of 15 mg/kg; assay type: functional
# [15] = Tested in vitro for cytotoxicity against […](LcV) in cells; assay type: functional
# Mus musculus [16] = species on record: Mus musculus; assay: Tested for immunosuppressive activity in mouse using allogenic MLR method; assay type: functional, organism-based
# Mus musculus [17] = assay: Tested in vivo for immunosuppressive activity in mouse using allogenic skin grafting technique(SG); graft survival relative to cyclophosphamide at a dose of 1.5 mg/kg; assay type: functional
# [18] = Non-cytotoxic IMS activity (ratio LcV/MLR) was determined; assay type: functional
# Mus musculus [19] = assay: Tested in vivo for immunosuppressive activity in mouse using graft vs Host rejection technique(GVHR); % suppression at a dose of 15.0 mg/kg; assay type: functional
# Mus musculus [20] = assay: Tested in vivo for immunosuppressive activity in mouse using graft vs Host rejection technique(GVHR); weight change at a dose of 15.0 mg/kg on day 5; assay type: functional
# Mus musculus [21] = assay: Tested in vivo for immunosuppressive activity in mouse using graft vs Host rejection technique(GVHR); spleen weight normalized to D8 body weight at a dose of 15.0 mg/kg; assay type: functional
# Mus musculus [22] = assay: Tested in vivo for immunosuppressive activity in mouse using graft vs Host rejection technique(GVHR); body weight at a dose of 1.5 mg/kg; assay type: functional
# Mus musculus [23] = assay: Tested in vivo for immunosuppressive activity in mouse using allogenic skin grafting technique(SG); graft survival relative to cyclophosphamide at a dose of 0.15 mg/kg; assay type: functional
# Mus musculus [24] = assay: Tested in vivo for immunosuppressive activity in mouse using graft vs Host rejection technique(GVHR); body weight at a dose of 15.0 mg/kg; assay type: functional
# Mus musculus [25] = assay: Tested in vivo for immunosuppressive activity in mouse using allogenic skin grafting technique(SG); mean graft survival at a dose of 15 mg/kg; assay type: functional
# Mus musculus [26] = assay: Tested in vivo for immunosuppressive activity in mouse using graft vs Host rejection technique(GVHR); weight change at a dose of 1.5 mg/kg on day 5; assay type: functional
# Mus musculus [27] = assay: Tested in vivo for immunosuppressive activity in mouse using allogenic skin grafting technique(SG); weight lost at a dose of 0.15 mg/kg; assay type: functional
# Mus musculus [28] = assay: Tested in vivo for immunosuppressive activity in mouse using allogenic skin grafting technique(SG); weight at a dose of 15 mg/kg; assay type: functional
# Mus musculus [29] = assay: Tested in vivo for immunosuppressive activity in mouse using graft vs. Host rejection technique(GVHR); weight change at a dose of 15.0 mg/kg; assay type: functional
# Mus musculus [30] = assay: Tested in vivo for immunosuppressive activity in mouse using allogenic skin grafting technique(SG); weight lost at a dose of 1.5 mg/kg; assay type: functional
# Mus musculus [31] = assay: Tested in vivo for immunosuppressive activity in mouse using allogenic skin grafting technique(SG); mean graft survival at a dose of 15.0 mg/kg; assay type: functional
# Mus musculus [32] = assay: Tested in vivo for immunosuppressive activity in mouse using graft vs. Host rejection technique(GVHR); % suppression at a dose of 15 mg/kg; assay type: functional
# Mus musculus [33] = assay: Tested in vivo for immunosuppressive activity in mouse using allogenic skin grafting technique(SG); graft survival relative to cyclophosphamide at a dose of 15.0 mg/kg; assay type: functional
# Mus musculus [34] = assay: Tested in vivo for immunosuppressive activity in mouse using graft vs. Host rejection technique(GVHR); spleen weight normalized to D8 body weight at a dose of 15.0 mg/kg; assay type: functional
# Mus musculus [35] = assay: Tested in vivo for immunosuppressive activity in mouse using graft vs. Host rejection technique(GVHR); spleen weight normalized to D8 body weight at a dose of 1.5 mg/kg; assay type: functional
# Mus musculus [36] = assay: Tested in vivo for immunosuppressive activity in mouse using graft vs. Host rejection technique(GVHR); weight change at a dose of 1.5 mg/kg; assay type: functional
# Mus musculus [37] = assay: Tested in vivo for immunosuppressive activity in mouse using graft vs. Host rejection technique(GVHR); % suppression at a dose of 0.15 mg/kg; assay type: functional
# Mus musculus [38] = assay: Tested in vivo for immunosuppressive activity in mouse using graft vs. Host rejection technique(GVHR); body weight at a dose of 0.15 mg/kg; assay type: functional
# Mus musculus [39] = assay: Tested in vivo for immunosuppressive activity in mouse using graft vs. Host rejection technique(GVHR); body weight at a dose of 15.0 mg/kg; assay type: functional
# Mus musculus [40] = assay: Tested in vivo for immunosuppressive activity in mouse using graft vs. Host rejection technique(GVHR); weight change at a dose of 0.15 mg/kg; assay type: functional
# Mus musculus [41] = assay: Tested in vivo for immunosuppressive activity in mouse using graft vs. Host rejection technique(GVHR); spleen index at a dose of 1.5 mg/kg; assay type: functional
# Mus musculus [42] = assay: Tested in vivo for immunosuppressive activity in mouse using graft vs. Host rejection technique(GVHR); body weight at a dose of 1.5 mg/kg; assay type: functional
# Mus musculus [43] = assay: Tested in vivo for immunosuppressive activity in mouse using graft vs. Host rejection technique(GVHR); spleen index at a dose of 0.15 mg/kg; assay type: functional
# Mus musculus [44] = assay: Tested in vivo for immunosuppressive activity in mouse using graft vs. Host rejection technique(GVHR); % suppression at a dose of 1.5 mg/kg; assay type: functional
# Mus musculus [45] = assay: Tested in vivo for immunosuppressive activity in mouse using graft vs. Host rejection technique(GVHR); spleen weight normalized to D8 body weight at a dose of 0.15 mg/kg; assay type: functional
# Mus musculus [46] = assay: Tested in vivo for immunosuppressive activity in mouse using graft vs. Host rejection technique(GVHR); % suppression at a dose of 15.0 mg/kg; assay type: functional
# Mus musculus [47] = assay: Tested in vivo for immunosuppressive activity in mouse using graft vs. Host rejection technique(GVHR); spleen index at a dose of 15.0 mg/kg; assay type: functional
# Mus musculus [48] = assay: Tested in vivo for immunosuppressive activity in mouse using graft vs. Host rejection technique(GVHR); weight change at a dose of 25.0 mg/kg; assay type: functional
# Mus musculus [49] = assay: Tested in vivo for immunosuppressive activity in mouse using allogenic skin grafting technique(SG); graft survival relative to cyclophosphamide at a dose of 25.0 mg/kg; assay type: functional
# Mus musculus [50] = assay: Tested in vivo for immunosuppressive activity in mouse using allogenic skin grafting technique(SG); mean graft survival at a dose of 25.0 mg/kg; assay type: functional
structure (smiles),measurement,setting,value
COc1cc([C@@H]2c3cc4c(cc3C3=NOC[C@H]3[C@@H]2C(=O)O)OCO4)cc(OC)c1OC,Mean graft survival,Mus musculus [1],11.2 days
same,Body weight,Mus musculus [2],18.7 g
same,Spleen weight,Mus musculus [3],4.35 g
same,SI,Mus musculus [4],1.27
same,SI,Mus musculus [5],1.14
same,Body weight,Mus musculus [6],19 g
same,Mean graft survival,Mus musculus [7],6.8 days
same,Spleen weight,Mus musculus [8],5.7 g
same,Body weight,Mus musculus [9],1.7 g
same,Weight change,Mus musculus [10],3.1%
same,Activity,Mus musculus [11],48%
same,SI,Mus musculus [12],0.87
same,Body weight,Mus musculus [13],15.8 g
same,Body weight,Mus musculus [14],17.8 g
same,Cytotoxicity,[15],>30 µg/mL
same,IC50,Mus musculus [16],< 9 ng/mL
same,graft survival,Mus musculus [17],0.69 days
same,Ratio,[18],>3333
same,Activity,Mus musculus [19],148%
same,Weight change,Mus musculus [20],1.8%
same,Spleen weight,Mus musculus [21],6.34 g
same,Body weight,Mus musculus [22],16 g
same,graft survival,Mus musculus [23],1.14 days
same,Body weight,Mus musculus [24],16.5 g
same,Mean graft survival,Mus musculus [25],0.9 days
same,Weight change,Mus musculus [26],0%
same,Body weight,Mus musculus [27],0.5 g
COc1cc([C@H]2C3=C(COC3=O)Cc3cc(OC(C)=O)c(OC(C)=O)cc32)cc(OC)c1OC,Cytotoxicity,[15],>28.5 µg/mL
same,IC50,Mus musculus [16],366 ng/mL
same,Ratio,[18],>78
COc1cc([C@@H]2c3cc(O)c(O)cc3C[C@H]3COC(=O)[C@@H]32)cc(OC)c1OC,Cytotoxicity,[15],>25 µg/mL
same,IC50,Mus musculus [16],585 ng/mL
same,Ratio,[18],>43
COc1cc([C@@H]2c3cc(O)c(O)cc3[C@@H](O)[C@H]3COC(=O)[C@H]23)cc(OC)c1OC,Mean graft survival,Mus musculus [1],11 days
same,Body weight,Mus musculus [2],18.5 g
same,Body weight,Mus musculus [28],0.2 g
same,Weight change,Mus musculus [29],-3%
same,Body weight,Mus musculus [6],18.3 g
same,Mean graft survival,Mus musculus [7],11 days
same,Body weight,Mus musculus [30],1 g
same,Mean graft survival,Mus musculus [31],9.7 days
same,Body weight,Mus musculus [32],18.2 g
same,graft survival,Mus musculus [33],0.99 days
same,Spleen weight,Mus musculus [34],5.02 g
same,Spleen weight,Mus musculus [35],4.4 g
same,Weight change,Mus musculus [36],1.9%
same,Activity,Mus musculus [37],170%
same,Body weight,Mus musculus [38],17 g
same,Body weight,Mus musculus [39],16.3 g
same,Cytotoxicity,[15],>35 µg/mL
same,Weight change,Mus musculus [40],0%
same,IC50,Mus musculus [16],0.015 ng/mL
same,graft survival,Mus musculus [17],1.12 days
same,SI,Mus musculus [41],0.88
same,Ratio,[18],>23333333
same,Body weight,Mus musculus [42],15.8 g
same,SI,Mus musculus [43],0.81
same,Activity,Mus musculus [44],144%
same,graft survival,Mus musculus [23],1.12 days
same,Spleen weight,Mus musculus [45],4.05 g
same,Activity,Mus musculus [46],100%
same,Body weight,Mus musculus [27],0.6 g
same,SI,Mus musculus [47],1
COc1cc([C@H]2C3=C(COC3=O)Cc3cc4c(cc32)OCO4)cc(OC)c1OC,Cytotoxicity,[15],>28.5 µg/mL
same,IC50,Mus musculus [16],< 8.55 ng/mL
same,Ratio,[18],>3333
COc1cc([C@@H]2c3cc(OC(C)=O)c(OC(C)=O)cc3[C@H](OC(C)=O)[C@H]3COC(=O)[C@H]23)cc(OC)c1OC,Cytotoxicity,[15],>26 µg/mL
same,IC50,Mus musculus [16],60.7 ng/mL
same,Ratio,[18],>428
COc1cc([C@@H]2c3cc(OC(C)=O)c(OC(C)=O)cc3[C@@H](OC(C)=O)[C@H]3COC(=O)[C@H]23)cc(OC)c1OC,Cytotoxicity,[15],>28.5 µg/mL
same,IC50,Mus musculus [16],427 ng/mL
same,Ratio,[18],>67
C/C=C/C[C@@H](C)[C@@H](O)[C@H]1C(=O)N[C@@H](CC)C(=O)N(C)CC(=O)N(C)[C@@H](CC(C)C)C(=O)N[C@@H](C(C)C)C(=O)N(C)[C@@H](CC(C)C)C(=O)N[C@@H](C)C(=O)N[C@H](C)C(=O)N(C)[C@@H](CC(C)C)C(=O)N(C)[C@@H](CC(C)C)C(=O)N(C)[C@@H](C(C)C)C(=O)N1C [CYCLOSPORINE],Weight change,Mus musculus [48],2.7%
same,graft survival,Mus musculus [49],1 days
same,Mean graft survival,Mus musculus [50],9.8 days
COc1cc([C@@H]2c3cc4c(cc3[C@@H](O)[C@H]3COC(=O)[C@H]23)OCO4)cc(OC)c1OC [EPIPODOPHYLLOTOXIN],Cytotoxicity,[15],>65 µg/mL
same,IC50,Mus musculus [16],229 ng/mL
same,Ratio,[18],>284
COc1cc([C@@H]2c3cc4c(cc3[C@H](O)[C@H]3COC(=O)[C@H]23)OCO4)cc(OC)c1OC [PODOFILOX],Cytotoxicity,[15],280 µg/mL
same,IC50,Mus musculus [16],< 128 ng/mL
same,Ratio,[18],>2187

# — ChEMBL document CHEMBL1130359, “In vivo immunosuppressive activity of some cyclolignans” (Bioorg Med Chem Lett, 1997)
